Reference: US20240270741A1 (Cogent Biosciences, Inc., priority 2023, published 2024)

Target: FGFR2 (Homo sapiens, UniProt P21802)
Experiment: FGFR wild type enzyme assay (HTRF KinEASE-TK), FGFR2
Details: Enz FGFR2 (nM)

FGFR2, sequence (P21802 399-821 limits assumed): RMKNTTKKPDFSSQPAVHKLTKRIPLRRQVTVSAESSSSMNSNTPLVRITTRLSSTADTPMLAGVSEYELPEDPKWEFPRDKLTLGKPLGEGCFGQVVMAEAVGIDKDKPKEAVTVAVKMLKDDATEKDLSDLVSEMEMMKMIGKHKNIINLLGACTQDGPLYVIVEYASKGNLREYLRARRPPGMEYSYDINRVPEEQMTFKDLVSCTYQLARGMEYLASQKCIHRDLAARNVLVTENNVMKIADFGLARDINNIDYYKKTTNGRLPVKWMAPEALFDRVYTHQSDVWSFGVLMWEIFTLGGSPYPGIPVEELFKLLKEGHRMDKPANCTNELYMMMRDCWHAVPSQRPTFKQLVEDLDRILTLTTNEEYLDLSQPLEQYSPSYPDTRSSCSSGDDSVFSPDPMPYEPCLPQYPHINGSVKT

IC50 (FGFR2 wild type enzyme) [nM]	IC50 (FGFR2 wild type enzyme assay) [nM]	SMILES
1.5	–	Cc1nn([C@H]2CC[C@@H](O)CC2)cc1-c1cc(Sc2ncccc2F)c2c(C#N)cnn2c1 [Example 312, 4-((3-fluoropyridin-2-yl)thio)-6-(1-((1s,4s)-4-hydroxycyclohexyl)-3-methyl-1H-pyrazol-4-yl)pyrazolo[1,5-a]pyridine-3-carbonitrile]
1	–	Cc1nn([C@H]2CC[C@@H](O)CC2)cc1-c1cc(Sc2ccccc2C#N)c2c(C#N)cnn2c1 [Example 313, 4-((2-cyanophenyl)thio)-6-(1-((1s,4s)-4-hydroxycyclohexyl)-3-methyl-1H-pyrazol-4-yl)pyrazolo[1,5-a]pyridine-3-carbonitrile]
2	–	CC(=O)N[C@H]1CC[C@@H](n2cc(-c3cc(Sc4ccccn4)c4c(C#N)cnn4c3)cn2)CC1 [Example 314, N-((1s,4s)-4-(4-(3-cyano-4-(pyridin-2-ylthio)pyrazolo[1,5-a]pyridin-6-yl)-1H-pyrazol-1-yl)cyclohexyl)acetamide]
3	–	CC(=O)N[C@H]1CC[C@@H](n2cc(-c3cc(Sc4ncccc4C)c4c(C#N)cnn4c3)cn2)CC1 [Example 315, N-((1s,4s)-4-(4-(3-cyano-4-((3-methylpyridin-2-yl)thio)pyrazolo[1,5-a]pyridin-6-yl)-1H-pyrazol-1-yl)cyclohexyl)acetamide]
0.4	–	CC(=O)N[C@H]1CC[C@@H](n2cc(-c3cc(Sc4ccccc4C#N)c4c(C#N)cnn4c3)cn2)CC1 [Example 316, N-((1s,4s)-4-(4-(3-cyano-4-((2-cyanophenyl)thio)pyrazolo [1,5-a]pyridin-6-yl)-1H-pyrazol-1-yl)cyclohexyl)acetamide]
0.5	–	Cc1c(-c2cc(Sc3ccc(F)cc3C#N)c3c(C#N)cnn3c2)cnn1[C@H]1CC[C@@H](N(C)CCO)CC1 [Example 317, 4-((2-cyano-4-fluorophenyl)thio)-6-(1-((1s,4s)-4-((2-hydroxyethyl)(methyl)ami-no)cyclohexyl)-5-methyl-1H-pyrazol-4-yl)pyrazolo[1,5-a]pyridine-3-carbonitrile]
0.4	–	Cc1c(-c2cc(Sc3ccccc3C#N)c3c(C#N)cnn3c2)cnn1[C@H]1CC[C@@H](N(C)CCO)CC1 [Example 318, 4-((2-cyanophenyl)thio)-6-(1-((1s,4s)-4-((2-hydroxyethyl)(methyl)ami-no)cyclohexyl)-5-methyl-1H-pyrazol-4-yl)pyrazolo[1,5-a]pyridine-3-carbonitrile]
0.3	–	CN[C@]1(C)CC[C@H](n2ncc(-c3cc(Sc4ccccc4C#N)c4c(C#N)cnn4c3)c2C)CC1 [Example 319, 4-((2-cyanophenyl)thio)-6-(5-methyl-1-((1s,4s)-4-methyl-4-(methylamino)cyclohexyl)-1H-pyrazol-4-yl)pyrazolo[1,5-a]pyridine-3-carbonitrile]
0.3	–	CN[C@]1(C)CC[C@@H](n2ncc(-c3cc(Sc4ccccc4C#N)c4c(C#N)cnn4c3)c2C)CC1 [Example 320, 4-((2-cyanophenyl)thio)-6-(5-methyl-1-((1r,4r)-4-methyl-4-(methylamino)cyclohexyl)-1H-pyrazol-4-yl)pyrazolo[1,5-a]pyridine-3-carbonitirle]
1	–	CC(=O)N1CC[C@]2(CC[C@@H](n3ncc(-c4cc(Sc5ccccc5C#N)c5c(C#N)cnn5c4)c3C)CC2)C1 [Example 321, 6-(1-((5r,8r)-2-acetyl-2-azaspiro[4.5]decan-8-yl)-5-methyl-1H-pyrazol-4-yl)-4-((2-cyanophenyl)thio)pyrazolo [1,5-a]pyridine-3-carbonitrile]
0.6	–	CC(=O)N1CC[C@]2(CC[C@H](n3ncc(-c4cc(Sc5ccccc5C#N)c5c(C#N)cnn5c4)c3C)CC2)C1 [Example 322, 6-(1-((5s,8s)-2-acetyl-2-azaspiro[4.5]decan-8-yl)-5-methyl-1H-pyrazol-4-yl)-4-((2-cyanophenyl)thio)pyrazolo [1,5-a]pyridine-3-carbonitrile]
1	–	Cc1c(-c2cc(Sc3ccc(F)cc3C#N)c3c(C#N)cnn3c2)cnn1[C@H]1CC[C@](C)(O)CC1 [Example 323, 4-((2-cyano-4-fluorophenyl)thio)-6-(1-((1r,4r)-4-hydroxy-4-methylcyclohexyl)-5-methyl-1H-pyrazol-4-yl)pyrazolo[1,5-a]pyridine-3-carbonitrile]
1	–	Cc1c(-c2cc(Sc3ccc(F)cc3C#N)c3c(C#N)cnn3c2)cnn1[C@H]1CC[C@@](C)(O)CC1 [Example 324, 4-((2-cyano-4-fluorophenyl)thio)-6-(1-((1s,4s)-4-hydroxy-4-methylcyclohexyl)-5-methyl-1H-pyrazol-4-y)pyrazolo[1,5-a]pyridine-3-carbonitrile]
0.5	–	Cc1c(-c2cc(Sc3ccc(F)cc3C#N)c3c(C#N)cnn3c2)cnn1[C@H]1CC[C@@](C)(N)CC1 [Example 325, 6-(1-((1s,4s)-4-amino-4-methylcyclohexyl)-5-methyl-1H-pyrazol-4-yl)-4-((2-cyano-4-fluorophenyl)thio)pyrazolo [1,5-a]pyridine-3-carbonitrile]
1	–	CN[C@]1(C)CC[C@H](n2ncc(-c3cc(Sc4ccc(F)cc4C#N)c4c(C#N)cnn4c3)c2C)CC1 [Example 326, 4-((2-cyano-4-fluoorphenyl)thio)-6-(5-methyl-1-((1s,4s)-4-methyl-4-(methylamino)cyclohxyl)-1H-pyrazol-4-eyl)pyrazolo[1,5-a]pyridine-3-carbonitrile]
0.5	–	Cc1c(-c2cc(Sc3ccc(F)cc3C#N)c3c(C#N)cnn3c2)cnn1[C@H]1CC[C@@](C)(N(C)C)CC1 [Example 327, 4-((2-cyano-4-fluorophenyl)thio)-6-(1-((1s,4s)-4-(dimethylamino)-4-methylcyclohexyl)-5-methyl-1H-pyrazol-4-yl)pyrazolo[1,5-a]pyridine-3-carbonitrile]
3	–	Cc1c(-c2cc(Sc3ncc(F)cc3F)c3c(C#N)cnn3c2)cnn1C1CCN(C)CC1 [Example 328, 4-((3,5-difluoropyridin-2-yl)thio)-6-(5-methyl-1-(1-methylpiperidin-4-yl)-1H-pyrazol-4-yl)pyrazolo[1,5-a]pyridine-3-carbonitrile]
5	–	Cc1c(-c2cc(Sc3ccc(F)cn3)c3c(C#N)cnn3c2)cnn1C1CCN(C)CC1 [Example 329, 4-((5-fluoropyridin-2-yl)thio)-6-(5-methyl-1-(1-methylpiperidin-4-yl)-1H-pyrazol-4-yl)pyrazolo[1,5-a]pyridine-3-carbonitrile]
1	–	Cc1c(-c2cc(Sc3ccc(F)cc3C#N)c3c(C#N)cnn3c2)cnn1C1CCN(C(C)C)CC1 [Example 330, 4-((2-cyano-4-fluorophenyl)thio)-6-(1-(1-isopropylpiperidin-4-yl)-5-methyl-1H-pyrazol-4-yl)pyrazolo[1,5-a]pyridine-3-carbonitrile]
1	–	Cc1c(-c2cc(Sc3ccc(F)cc3C#N)c3c(C#N)cnn3c2)cnn1C1CCN(C[C@@H](C)O)CC1 [Example 331, (R)-4-((2-cyano-4-fluorophenyl)thio)-6-(1-(1-(2-hydroxypropyl)piperidin-4-yl)-5-methyl-1H-pyrazol-4-yl)pyrazolo[1,5-a]pyridine-3-carbonitrile]
1	–	Cc1c(-c2cc(Sc3ccc(F)cc3C#N)c3c(C#N)cnn3c2)cnn1[C@H]1CCCN(C(=O)CO)C1 [Example 332, (S)-4-((2-cyano-4-fluorophenyl)thio)-6-(1-(1-(2-hydroxyacetyl)piperidin-3-yl)-5-methyl-1H-pyrazol-4-yl)pyrazolo[1,5-a]pyridine-3-carbonitrile]
–	1	Cc1c(-c2cc(Sc3ccc(F)cc3C#N)c3c(C#N)cnn3c2)cnn1[C@H]1CCCNC1 [Example 333, (S)-4-((2-cyano-4-fluorophenyl)thio)-6-(5-methyl-1-(piperidin-3-yl)-1H-pyrazol-4-yl)pyrazolo[1,5-a]pyridine-3-carbonitrile]
–	1	CC(=O)N1CCC[C@H](n2ncc(-c3cc(Sc4ccc(F)cc4C#N)c4c(C#N)cnn4c3)c2C)C1 [Example 334, (S)-6-(1-(1-acetylpiperidin-3-yl)-5-methyl-1H-pyrazol-4-yl)-4-((2-cyano-4-fluorophenyl)thio)pyrazolo [1,5-a]pyridine-3-carbonitrile]
–	1	Cc1c(-c2cc(Sc3ccc(F)cc3C#N)c3c(C#N)cnn3c2)cnn1[C@H]1CCCN(C)C1 [Example 335, (S)-4-((2-cyano-4-fluorophenyl)thio)-6-(5-methyl-1-(1-methylpiperidin-3-yl)-1H-pyrazol-4-yl)pyrazolo[1,5-a]pyridine-3-carbonitrile]
–	1	Cc1c(-c2cc(Sc3ccc(F)cc3C#N)c3c(C#N)cnn3c2)cnn1[C@H]1CCCN(CCO)C1 [Example 336, (S)-4-((2-cyano-4-fluorophenyl)thio)-6-(1-(1-(2-hydroxyethyl)piperidin-3-yl)-5-methyl-1H-pyrazol-4-yl)pyrazolo[1,5-a]pyridine-3-carbonitrile]
–	3	Cc1nn([C@H]2CC[C@@H](N(C)C)CC2)c(C)c1-c1cc(Sc2ccccc2C#N)c2c(C#N)cnn2c1 [Example 337, 4-((2-cyanophenyl)thio)-6-(1-((1s,4s)-4-(dimethylamino)cyclohex-yl)-3,5-dimethyl-1H-pyrazol-4-yl)pyrazolo[1,5-a]pyridine-3-carbonitrile]
–	1	CC(=O)N1CCC(n2ncc(-c3cc(Sc4ccc(F)cc4C#N)c4c(C#N)cnn4c3)c2C)CC1 [Example 338, 6-(1-(1-acetylpiperidin-4-yl)-5-methyl-1H-pyrazol-4-yl)-4-((2-cyano-4-fluorophenyl)thio)pyrazolo [1,5-a]pyridine-3-carbonitrile]
–	1	Cc1c(-c2cc(Sc3ccc(F)cc3C#N)c3c(C#N)cnn3c2)cnn1C1CCN(C(=O)CO)CC1 [Example 339, 4-((2-cyano-4-fluorophenyl)thio)-6-(1-(1-(2-hydroxyacetyl)piperidin-4-yl)-5-methyl-1H-pyrazol-4-yl)pyrazolo[1,5-a]pyridine-3-carbonitrile]
–	7.5	C#Cc1cnn2cc(-c3cnn(C4CCN(C(=O)CO)CC4)c3C)cc(Sc3ccc(F)cn3)c12 [Example 340, 1-(4-(4-(3-ethynyl-4-((5-fluoropyridin-2-yl)thio)pyrazolo[1,5-a]pyridin-6-yl)-5-methyl-1H-pyrazol-1-yl)piperidin-1-yl)-2-hydroxyethan-1-one]
